Earlier results as cited in patent US20220192199A1, “METHOD FOR REMOVING BIOFILM” (KAO CORPORATION, priority 2019, published 2022).

Settings: primary dissociation constant

## O=C(O)[C@H](O)[C@@H](O)[C@H](O)[C@H](O)CO [gluconic acid]
  pKa1: 3.86

## O=C(O)CCO [3-hydoxypropionic acid]
  pKa1: 4.5
